Results published in the supplement of paper PMC11061612.

Legend:
[1] = test system: HARA (Squamous Cell Lung Carcinoma); assay: Bliss excess, mean over the matrix (fraction); higher = more synergy
Method in brief: (§1)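 After 24 hours at 37°C and 5% CO2 in 1536-well plates, cells in DMEM/F12 or RPMI plus 10% FBS received two-drug dose matrices for 72 hours. Viability came from CellTiter-Glo 2.0 luminescence and was scaled as inhibition, anchored at 0 by vehicle wells and at 1 by blank wells. Combination Emax is taken as the second-highest inhibition in the matrix, and Bliss excess as the observed combination effect less EA + EB − EA·EB, with EA and EB the single-agent effects.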

[2] = test system: OVCAR-8 (Ovarian Carcinoma); assay: as above
Method in brief: as §1

[3] = test system: SW1116 (Colorectal Carcinoma); assay: as above
Method in brief: as §1

[4] = test system: SU-DHL-6 (B-Cell Non-Hodgkin's Lymphoma); assay: as above
Method in brief: as §1

[5] = test system: HARA (Squamous Cell Lung Carcinoma); assay: combination Emax (second highest fraction inhibited in the dose matrix, 72 h); higher = more inhibition; extreme values may be limits of the assay
Method in brief: as §1

[6] = test system: UMC-11 (Other Solid Carcinomas); assay: as above
Method in brief: as §1

[7] = test system: SUP-T1 (T-Lymphoblastic Leukemia); assay: as above
Method in brief: as §1

[8] = test system: SH-4 (Melanoma); assay: as above
Method in brief: as §1

[9] = test system: EN (Endometrial Carcinoma); assay: as above
Method in brief: as §1

[10] = test system: HCC-15 (Squamous Cell Lung Carcinoma); assay: as above
Method in brief: as §1

[11] = test system: TE-4 (Esophageal Squamous Cell Carcinoma); assay: as above
Method in brief: as §1

[12] = test system: SK-OV-3 (Ovarian Carcinoma); assay: as above
Method in brief: as §1

[13] = test system: PCI-30 (Head and Neck Carcinoma); assay: as above
Method in brief: as §1

[14] = test system: KYSE-410 (Esophageal Squamous Cell Carcinoma); assay: as above
Method in brief: as §1

[15] = test system: SW1116 (Colorectal Carcinoma); assay: as above
Method in brief: as §1

[16] = test system: 639-V (Bladder Carcinoma); assay: as above
Method in brief: as §1

[17] = test system: CAPAN-1 (Pancreatic Carcinoma); assay: as above
Method in brief: as §1

[18] = test system: NB14 (Neuroblastoma); assay: as above
Method in brief: as §1

[19] = test system: COLO-829 (Melanoma); assay: as above
Method in brief: as §1

[20] = test system: NCI-H2461 (Mesothelioma); assay: as above
Method in brief: as §1
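Throughout, for Bliss excess, mean over the matrix: after 72 h of two-drug dosing.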

| Structure (SMILES) | Bliss excess [1] | Bliss excess [2] | Bliss excess [3] | Bliss excess [4] | combination Emax [5] | combination Emax [6] | combination Emax [7] | combination Emax [8] | combination Emax [9] | combination Emax [10] | combination Emax [11] | combination Emax [12] | combination Emax [13] | combination Emax [14] | combination Emax [15] | combination Emax [16] | combination Emax [17] | combination Emax [18] | combination Emax [19] | combination Emax [20] |
| --- | --- | --- | --- | --- | --- | --- | --- | --- | --- | --- | --- | --- | --- | --- | --- | --- | --- | --- | --- | --- |
| COc1cccc(OCCCN)c1-c1cc(Nc2cnc(C#N)cn2)n[nH]1 [Prexasertib] + CN(C)CCCOc1ccc(-c2ccc3ncc4c(c3c2)n(C2CCOCC2)c(=O)n4C)cn1 [AZD0156] (first compound max 1 µM, 7x7, partner max 1 µM) | -0.0038 | 0.0133 | -0.0253 | 0.0382 | 0.986 | 0.902 | 0.821 | 0.807 | 0.762 | 0.187 | 0.65 | 0.853 | 0.813 | 0.483 | 0.516 | 0.446 | 0.611 | 1 | 0.385 | 0.745 |
| COc1cccc(OCCCN)c1-c1cc(Nc2cnc(C#N)cn2)n[nH]1 [Prexasertib] + C[C@@H]1COCCN1C2=NC(=NC(=C2)C3(CC3)[S@](=N)(=O)C)C4=C5C=CNC5=NC=C4 [AZD6738] (first compound max 1 µM, 7x7, partner max 10 µM) | -0.0117 | -0.0151 | 0.0637 | -0.0158 | 0.943 | 0.866 | 0.808 | 0.63 | 0.726 | 0.33 | 0.652 | 0.806 | 0.773 | 0.532 | 0.615 | 0.397 | 0.527 | 1 | 0.335 | 0.721 |
| COc1cccc(OCCCN)c1-c1cc(Nc2cnc(C#N)cn2)n[nH]1 [Prexasertib] + Cc1cc2ncnn2cc1Nc1ncc2c(n1)n(C1CCOCC1)c(=O)n2C [AZD7648] (first compound max 1 µM, 7x7, partner max 10 µM) | -0.0085 | 0.0125 | -0.0183 | 0.0159 | 0.953 | 0.902 | 0.821 | 0.709 | 0.756 | 0.333 | 0.597 | 0.842 | 0.721 | 0.504 | 0.463 | 0.362 | 0.585 | 1 | 0.398 | 0.693 |
| COc1cccc(OCCCN)c1-c1cc(Nc2cnc(C#N)cn2)n[nH]1 [Prexasertib] + O=C(c1cc(Cc2n[nH]c(=O)c3ccccc23)ccc1F)N1CCN(C(=O)C2CC2)CC1 [Olaparib] (first compound max 1 µM, 7x7, partner max 10 µM) | -0.0682 | -0.0475 | -0.0415 | 0.0089 | 0.964 | 0.902 | 0.79 | 0.611 | 0.726 | 0.284 | 0.654 | 0.713 | 0.548 | 0.382 | 0.565 | 0.868 | 0.595 | 0.986 | 0.281 | 0.652 |
| COc1cc2c(cc1OCCCCCOc1cc3c(cc1OC)C(=O)N1C=C(C)C[C@H]1C=N3)N=C[C@@H]1CC(C)=CN1C2=O [SG3199] + O=C(c1cc(Cc2n[nH]c(=O)c3ccccc23)ccc1F)N1CCN(C(=O)C2CC2)CC1 [Olaparib] (first compound max 0.001 µM, 7x7, partner max 10 µM) | -0.0066 | -0.0295 | -0.0356 | 0.0075 | 0.174 | 0.168 | 0.442 | 0.181 | 0.148 | 0.145 | 0.233 | 0.0705 | 0.105 | 0.136 | 0.0344 | 0.201 | 0.198 | 0.42 | 0.129 | 0.11 |
| CCc1c2c(nc3ccc(O)cc13)-c1cc3c(c(=O)n1C2)COC(=O)[C@]3(O)CC [SN-38] + CN(C)CCCOc1ccc(-c2ccc3ncc4c(c3c2)n(C2CCOCC2)c(=O)n4C)cn1 [AZD0156] (first compound max 0.3 µM, 7x7, partner max 1 µM) | 0.112 | 0.0058 | -0.0108 | -0.0694 | 0.768 | 0.303 | 0.853 | 0.27 | 0.157 | 0.879 | 0.402 | 0.517 | 0.692 | 0.254 | 0.199 | 1 | 0.781 | 0.918 | 0.497 | 0.639 |
| C[C@@H](c1ccc2nccn2c1)n1nnc2ncc(-c3cnn(C)c3)nc21 [Savolitinib] + CC1(C)CCC(CN2CCN(c3ccc(C(=O)NS(=O)(=O)c4ccc(NCC5CCOCC5)c([N+](=O)[O-])c4)c(Oc4cnc5[nH]ccc5c4)c3)CC2)=C(c2ccc(Cl)cc2)C1 [Venetoclax] (first compound max 1 µM, 7x7, partner max 1 µM) | -0.031 | -0.035 | -0.0595 | 0.0481 | 0.122 | 0.13 | 0.131 | 0.139 | 0.238 | 0.175 | 0.145 | 0.121 | 0.143 | 0.124 | 0.145 | 0.121 | 0.181 | 0.114 | 0.209 | 0.301 |
| C[C@@H](c1ccc2nccn2c1)n1nnc2ncc(-c3cnn(C)c3)nc21 [Savolitinib] + Cc1c2c(nn1C)CSCc1cc(n(C)n1)CSc1cc(c3ccccc3c1)OCCCc1c(C(=O)O)n(C)c3c-2c(Cl)ccc13 [AZD5991] (first compound max 1 µM, 7x7, partner max 1 µM) | -0.0353 | -0.0327 | -0.0252 | -0.013 | 0.236 | 0.275 | 0.138 | 0.192 | 0.43 | 0.124 | 0.422 | 0.112 | 0.146 | 0.181 | 0.218 | 0.21 | 0.242 | 0.293 | 0.242 | 0.345 |
| Cn1cnc2c(F)c(Nc3ccc(Br)cc3Cl)c(C(=O)NOCCO)cc21 [Selumetinib] + C=CCn1c(=O)c2cnc(Nc3ccc(N4CCN(C)CC4)cc3)nc2n1-c1cccc(C(C)(C)O)n1 [AZD1775] (first compound max 10 µM, partner max 1 µM) | -0.0406 | 0.0202 | -0.0031 | -0.0229 | 0.919 | 0.584 | 0.809 | 0.94 | 0.587 | 0.612 | 0.642 | 0.365 | 0.173 | 0.431 | 0.444 | 0.455 | 0.59 | 1 | 0.481 | 0.569 |
| Cn1cnc2c(F)c(Nc3ccc(Br)cc3Cl)c(C(=O)NOCCO)cc21 [Selumetinib] + CC(C)n1c(=O)n(C)c2cnc3cc(F)c(-c4ccc(OCCCN5CCCCC5)nc4)cc3c21 [AZD1390] (first compound max 10 µM, 7x7, partner max 0.3 µM) | -0.0159 | -0.0254 | -0.0094 | -0.0323 | 0.184 | 0.0797 | 0.0785 | 0.854 | 0.261 | 0.421 | 0.226 | 0.238 | 0.203 | 0.163 | 0.502 | 0.238 | 0.376 | 0.241 | 0.481 | 0.337 |
| Cn1cnc2c(F)c(Nc3ccc(Br)cc3Cl)c(C(=O)NOCCO)cc21 [Selumetinib] + CCN(CCO)CCCOc1ccc2c(Nc3cc(CC(=O)Nc4cccc(F)c4)[nH]n3)ncnc2c1 [AZD2811] (first compound max 10 µM, 7x7, partner max 1 µM) | 0.0522 | 0.0121 | 0.0021 | 0.0923 | 0.409 | 0.818 | 0.413 | 0.906 | 0.569 | 0.799 | 0.422 | 0.226 | 0.233 | 0.256 | 0.534 | 0.342 | 0.426 | 0.866 | 0.506 | 0.397 |
| Cn1cnc2c(F)c(Nc3ccc(Br)cc3Cl)c(C(=O)NOCCO)cc21 [Selumetinib] + C[C@@H]1COCCN1C2=NC(=NC(=C2)C3(CC3)[S@](=N)(=O)C)C4=C5C=CNC5=NC=C4 [AZD6738] (first compound max 10 µM, 7x7, partner max 10 µM) | -0.0115 | -0.0197 | -0.0148 | 0.0102 | 0.835 | 0.603 | 0.713 | 0.91 | 0.558 | 0.503 | 0.791 | 0.32 | 0.371 | 0.302 | 0.476 | 0.464 | 0.585 | 0.97 | 0.597 | 0.571 |
| CC(=O)Nc1cccc(-n2c(=O)n(C3CC3)c(=O)c3c(Nc4ccc(I)cc4F)n(C)c(=O)c(C)c32)c1 [Trametinib] + Cc1nc(-c2cn3c(n2)-c2ccc(-c4cnn(C(C)(C)C(N)=O)c4)cc2OCC3)n(C(C)C)n1 [Taselisib] (first compound max 1 µM, 7x7, partner max 10 µM) | 0.162 | 0.121 | 0.139 | 0.0238 | 0.818 | 0.355 | 0.596 | 0.999 | 0.681 | 0.987 | 1 | 0.797 | 0.627 | 0.993 | 0.866 | 0.718 | 0.774 | 0.822 | 0.942 | 0.587 |
